Columns and labels:
MEK1 = MEK1 (Homo sapiens (Human), UniProt Q02750); assay: MEK family profiling ADP-Glo, MEK1; format: biochemical; details: Erk2 substrate; 0.6 μM ATP; read-out: IC50 MEK isoform 1
MEK6 = MEK6 (Homo sapiens (Human), UniProt P52564); assay: MEK family profiling ADP-Glo, MEK6; format: biochemical; details: p38α substrate; 0.6 μM ATP; read-out: IC50 MEK isoform 6
MEK2 = MEK2 (Homo sapiens (Human), UniProt P36507); assay: MEK family profiling ADP-Glo, MEK2; format: biochemical; details: Erk2 substrate; 0.6 μM ATP; read-out: IC50 MEK isoform 2
MEK3 = MEK3 (Homo sapiens (Human), UniProt P46734); assay: MEK family profiling ADP-Glo, MEK3; format: biochemical; details: p38α substrate; 0.6 μM ATP; read-out: IC50 MEK isoform 3
MEK5 = MEK5 (Homo sapiens (Human), UniProt Q13163); assay: MEK family profiling ADP-Glo, MEK5; format: biochemical; details: Erk5 substrate; 0.6 μM ATP; read-out: IC50 MEK isoform 5
human MEK4 = human MEK4 (Homo sapiens (Human), UniProt P45985); assay: MEK4 ADP-Glo kinase activity assay (p38α substrate); format: biochemical; details: for IC50: p38α substrate, value with 95% confidence interval in brackets, read-out: MEK4-p38, IC50, μM [95% Cl]
PC3M cells = assay: Scratch wound assay; format: cell-based

Chain of MEK6 (P52564 whole entry, canonical isoform): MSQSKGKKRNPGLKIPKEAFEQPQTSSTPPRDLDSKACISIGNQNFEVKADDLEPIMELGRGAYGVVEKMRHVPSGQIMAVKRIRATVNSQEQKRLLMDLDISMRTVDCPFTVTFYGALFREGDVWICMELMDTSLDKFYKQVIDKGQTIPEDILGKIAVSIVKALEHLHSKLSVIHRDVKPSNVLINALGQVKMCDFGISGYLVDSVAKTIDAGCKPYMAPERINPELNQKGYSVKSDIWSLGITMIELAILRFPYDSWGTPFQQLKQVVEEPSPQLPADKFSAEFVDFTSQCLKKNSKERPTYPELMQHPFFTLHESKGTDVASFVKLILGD
Chain of MEK5 (Q13163 whole entry, canonical isoform): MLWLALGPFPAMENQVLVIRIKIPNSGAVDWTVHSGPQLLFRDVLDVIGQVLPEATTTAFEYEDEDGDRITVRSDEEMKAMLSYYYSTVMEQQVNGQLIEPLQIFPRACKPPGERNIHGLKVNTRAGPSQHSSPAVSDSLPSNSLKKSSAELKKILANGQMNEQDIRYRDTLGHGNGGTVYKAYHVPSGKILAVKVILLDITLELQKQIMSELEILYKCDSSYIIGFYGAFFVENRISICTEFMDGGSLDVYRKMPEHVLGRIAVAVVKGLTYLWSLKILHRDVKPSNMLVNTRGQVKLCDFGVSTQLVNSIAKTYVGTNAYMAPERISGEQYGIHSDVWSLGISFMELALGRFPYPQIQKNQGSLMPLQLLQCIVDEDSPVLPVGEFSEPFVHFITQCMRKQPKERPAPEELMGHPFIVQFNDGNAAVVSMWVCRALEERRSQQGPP
Chain of MEK3 (P46734 whole entry, canonical isoform): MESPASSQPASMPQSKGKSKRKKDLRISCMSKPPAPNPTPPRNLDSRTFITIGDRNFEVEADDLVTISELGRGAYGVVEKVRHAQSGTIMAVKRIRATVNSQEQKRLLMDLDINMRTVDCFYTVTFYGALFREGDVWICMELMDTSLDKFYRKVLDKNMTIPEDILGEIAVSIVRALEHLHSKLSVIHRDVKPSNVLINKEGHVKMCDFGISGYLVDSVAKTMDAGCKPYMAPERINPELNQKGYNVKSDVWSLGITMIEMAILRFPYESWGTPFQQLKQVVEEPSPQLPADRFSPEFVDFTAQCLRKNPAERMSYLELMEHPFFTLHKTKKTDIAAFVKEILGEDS
Chain of human MEK4 (P45985 whole entry): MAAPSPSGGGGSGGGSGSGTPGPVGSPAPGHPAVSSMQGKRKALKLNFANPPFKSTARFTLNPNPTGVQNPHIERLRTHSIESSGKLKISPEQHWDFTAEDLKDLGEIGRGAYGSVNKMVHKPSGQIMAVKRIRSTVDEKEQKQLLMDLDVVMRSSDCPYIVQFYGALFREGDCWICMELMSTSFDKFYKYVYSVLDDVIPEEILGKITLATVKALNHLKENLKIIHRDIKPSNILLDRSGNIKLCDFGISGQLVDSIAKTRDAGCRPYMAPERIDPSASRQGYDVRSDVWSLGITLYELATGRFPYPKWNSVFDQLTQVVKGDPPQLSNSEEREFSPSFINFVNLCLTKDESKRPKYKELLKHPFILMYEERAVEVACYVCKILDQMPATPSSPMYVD
Chain of MEK1 (Q02750 whole entry, canonical isoform): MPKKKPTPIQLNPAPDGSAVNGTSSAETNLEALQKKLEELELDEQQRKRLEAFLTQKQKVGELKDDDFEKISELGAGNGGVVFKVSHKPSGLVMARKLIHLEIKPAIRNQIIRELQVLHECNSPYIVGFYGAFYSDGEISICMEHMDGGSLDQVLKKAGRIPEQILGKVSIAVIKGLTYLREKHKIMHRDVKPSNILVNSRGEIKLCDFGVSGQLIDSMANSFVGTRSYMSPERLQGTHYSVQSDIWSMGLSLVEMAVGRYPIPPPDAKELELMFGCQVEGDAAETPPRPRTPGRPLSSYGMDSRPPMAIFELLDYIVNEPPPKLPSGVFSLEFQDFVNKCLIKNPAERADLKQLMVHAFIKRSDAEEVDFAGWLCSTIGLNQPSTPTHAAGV
Chain of MEK2 (P36507 whole entry, canonical isoform): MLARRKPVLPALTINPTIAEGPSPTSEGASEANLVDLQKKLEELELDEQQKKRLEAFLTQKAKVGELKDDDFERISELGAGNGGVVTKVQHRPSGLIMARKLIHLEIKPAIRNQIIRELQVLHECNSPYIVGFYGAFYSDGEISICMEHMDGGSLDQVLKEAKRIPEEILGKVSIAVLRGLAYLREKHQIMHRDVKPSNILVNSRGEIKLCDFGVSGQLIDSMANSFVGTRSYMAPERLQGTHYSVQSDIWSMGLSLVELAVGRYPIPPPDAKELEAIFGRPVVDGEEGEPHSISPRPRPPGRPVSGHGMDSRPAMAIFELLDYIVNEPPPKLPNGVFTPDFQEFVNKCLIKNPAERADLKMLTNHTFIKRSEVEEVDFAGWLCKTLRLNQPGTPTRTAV

Row | SMILES | IC50 (MEK1) | IC50 (MEK6) | IC50 (MEK2) | IC50 (MEK3) | IC50 (MEK5) | also measured
1 | Cc1ccc2[nH]nc(-c3ccc(C(=O)O)cc3)c2c1 [Compound 6s, 4-(5-methyl-2H-indazol-3-yl)benzoic Acid] | 17 µM | 8.7 µM | > 27 µM | 12 µM | > 27 µM | 
2 | Cc1ccc2[nH]nc(-c3ccc4c(c3)OCO4)c2c1 [Compound 6p, 3-(2H-1,3-benzodioxol-5-yl)-5-methyl-2H-indazole] | 6.6 µM | 3.2 µM | 9.1 µM | 8.5 µM | 16 µM | 
3 | CC(C)(C)OC(=O)n1nc(-c2ccc(O)cc2)c2cc(C(F)(F)F)ccc21 [Compound 6k, tert-butyl 3-(4-hydroxyphenyl)-5-(trifluoromethyl)-1H-indazole-1-carboxylate] |  |  |  |  |  | IC50 (human MEK4): > 20 µM
4 | Oc1ccc(-c2n[nH]c3ccc(C(F)(F)F)cc23)cc1 [Compound 6j, 4-[5-(trifluoromethyl)-2H-indazol-3-yl]phenol] | 4.6 µM | 1.6 µM | 5.3 µM |  | > 27 µM | 
5 | CC(C)(O)c1cccc(-c2n[nH]c3cccc(Cl)c23)c1 [Compound 6g, 2-[3-(4-chloro-2H-indazol-3-yl)phenyl]propan-2-ol] |  |  |  |  |  | IC50 (human MEK4): > 22 µM
6 | O=C(O)c1ccc(-c2n[nH]c3cc(C(F)(F)F)ccc23)cc1 [Compound 6z, 4-[6-(trifluoromethyl)-2H-indazol-3-yl]benzoic Acid] | 17 µM | 8.8 µM | > 27 µM | > 27 µM | 0.35 µM | 
7 | O=C(O)c1ccc(-c2n[nH]c3ccc(C(F)(F)F)cc23)cc1 [Compound 6n, 4-[5-(trifluoromethyl)-2H-indazol-3-yl]benzoic Acid] | 10 µM | 6 µM | > 27 µM | 2.9 µM | > 27 µM | 
8 | Fc1ccc2c(-c3ccc4c(c3)OCO4)n[nH]c2c1 [Compound 6ee, 3-(2H-1,3-benzodioxol-5-yl)-6-fluoro-2H-indazole] | 6.6 µM | 5.8 µM | 9.3 µM | 21 µM | > 27 µM | efficacy in wound scratch assay (PC3M cells; 10 μM): modest efficacy; efficacy in wound scratch assay (PC3M cells; 25 μM): performs better; Percent Difference, DMSO vs. 10 uM inhibitor (PC3M cells; PC3M cells, 10 μM, wound gap 0 vs 20 hrs): 14.93%; Percent Difference, DMSO vs. 25 uM inhibitor (PC3M cells; PC3M cells, 25 μM, wound gap 0 vs 20 hrs): 32.15%
9 | Cc1cccc2[nH]nc(-c3ccc(O)cc3)c12 [Compound 6b] | 11 µM | 21 µM | 15 µM | > 27 µM | > 27 µM | 
10 | Cc1ccc2[nH]nc(-c3ccc(C(N)=O)cc3)c2c1 [Compound 6r, 4-(5-methyl-2H-indazol-3-yl)benzamide] | 3.9 µM | 2.1 µM | 6.1 µM | 4.1 µM | 19 µM | 
11 | Cc1ccc2[nH]nc(-c3ccc(O)cc3)c2c1 [Compound 6q, 4-(5-methyl-2H-indazol-3-yl)phenol] | 7.7 µM | 2.2 µM | 7.2 µM |  | 25 µM | 
12 | Cc1ccc2[nH]nc(-c3ccc(F)c(CO)c3)c2c1 [Compound 6o] | 4 µM | 3.4 µM | 5.4 µM | 6 µM | > 27 µM | 
13 | Clc1cccc2[nH]nc(-c3cccnc3)c12 [Compound 6e, 4-chloro-3-(pyridin-3-yl)-2H-indazole] |  |  |  |  |  | IC50 (human MEK4): > 22 µM
14 | COC(=O)c1ccc(-c2n[nH]c3cc(C(F)(F)F)ccc23)cc1 [Compound 6y, methyl 4-[6-(trifluoromethyl)-2H-indazol-3-yl]benzoate] |  |  |  |  |  | MEK4 inhibition (human MEK4; SAR discussion of Table 1): completely inactive; IC50 (human MEK4): > 20 µM
15 | O=c1c(-c2ccc(O)cc2)coc2cc(O)cc(O)c12 [Geni, genistein, reference compound] |  |  |  |  |  | Percent Difference, DMSO vs. Geni (PC3M cells; PC3M cells, genistein 10 μM, wound gap 0 vs 20 hrs): 33.45%

Reference: patent publication US11370770B2, “3-arylindazoles as selective MEK4 inhibitors” (priority 2019, dated 2022)
